Where “and” joins values, the source holds several entries; their conditions need not be identical. Equal values may be shown once. Read-outs that look alike come from different tables or passages of the source.
What was measured:
Type in all cases: cell-based
[1] = Basal cytotoxicity test, Neutral Red Uptake (NRU) assay; details: for LD50 at 24 h: mouse, po, acute oral LD50 calculated from 3T3 NRU IC50 by regression formula, read-out: Basal cytotoxicity Estimated* LD50; for IC50 at 24 h: normal mouse embryo fibroblasts, read-out: Cytotoxicity IC50, 3T3
Description: In parallel, the borderline concentration relevant to the highest tolerated dose has been determined for each compound using the NIH 3T3 (mouse embryo fibroblasts) cell line and the basal cytotoxicity obtained has then been used to predict the starting doses for in vivo acute oral LD50 values in rodents.
the Neutral Red Uptake (NRU) assay was performed according to the standard protocol of Stokes modified by the NICEATM-ECVAM validation study. The NRU cytotoxicity assay procedure is based on the ability of viable cells to incorporate and bind Neutral Red, a supravitally dye. Balb/c 3T3 (Mouse Swiss Albino embryo fibroblast) cells (9000 cells/well) were placed into 96-well plates for 24 h in Dulbecco's modified Eagle's (DMEM) medium containing 5% fetal bovine serum. The cells were then exposed to the test compounds over a range of […] concentrations (1000, 316, 100, 31, 10, 3, 1 μg/ml) for 24 h. Untreated cells were used as a control. After 24 h, the medium was removed from all plates. Then, 250 μL of Neutral Red solution were added (0.05 mg/mL NR in DMEM 24 h pre-incubated at 37° C. and then filtered before use through 0.22-μm syringe filter). Plates were incubated for 3 h and then cells were washed three times with PBS. The dye within viable cells was released by extraction with a mixture of acetic acid, ethanol and water (1:50:49). Absorbance of Neutral Red was measured using a spectrophotometer multiplate reader (TECAN, Infinite M1000) at 540 nm. The percentage of living cells was calculated using the formula: OD (treated cells)*100/OD (control cells). The IC50 values were calculated using the programme Graph Pad Prism® 3.0.
Data from the in vitro tests were used for estimating the starting dose for acute oral systemic toxicity tests in rodents. […] The value is recalculated to mg/kg and compounds are evaluated in accordance with four toxicity categories: category 1: LD50≤5 mg/kg (highly toxic); category 2: 5<LD50≤50 mg/kg (moderately toxic); category 3: 50<LD50≤300 mg/kg (slightly toxic); category 4: 300<LD50≤2 000 mg/kg (practically non-toxic).

[2] = system: HT-1080 (human fibrosarcoma); test: In vitro cytotoxicity, MTT test; details: read-out: Cytotoxicity IC50, HT-1080
Description: (§1) Anticancer activity of selenopheno[h]chromenes was tested in vitro using cytotoxicity assay. […] About 2-9·10^4 cells/mL (depending on line nature) were placed in 96-well plates immediately after compounds were added to the wells. Untreated cells were used as a control. The plates were incubated for 72 h, 37° C., 5% CO2. The number of surviving cells was determined using 3-(4,5-dimethylthiazol-2-yl)-2,5-diphenyltetrazolinium bromide (MTT). MTT-test: after incubating culture medium was removed and 200 μL fresh medium with 10 mM HEPES was added in each well of the plate, than 20 μL MTT (2 mg/mL in HBSS) was added. After incubation (3 hr, 37° C., 5% CO2), the medium with MTT was removed and 200 μL DMSO were added at once to each sample. The samples were tested at 540 nm on Anthos HT II photometer.

[3] = system: HepG2 (human hepatocellular carcinoma); test: In vitro cytotoxicity, MTT test; details: read-out: Cytotoxicity IC50, HepG2
Description: as §1

CCL-8 (mouse sarcoma) = test: In vitro cytotoxicity, MTT test; details: 72 h, read-out: Cytotoxicity IC50, CCL-8
Description: as §1

MG-22A (mouse hepatoma) = test: In vitro cytotoxicity, MTT test; details: 72 h, read-out: Cytotoxicity IC50, MG-22A
Description: as §1

[4] = system: MES-SA (human uterus sarcoma); test: In vitro cytotoxicity, MTT test; details: 72 h, read-out: Cytotoxicity IC50, MES-SA
Description: as §1

[5] = system: A549 (human lung carcinoma); test: In vitro cytotoxicity, MTT test; details: read-out: Cytotoxicity IC50, A549
Description: as §1

[6] = system: MCF-7 (human breast adenocarcinoma, estrogen-positive); test: In vitro cytotoxicity, MTT test; details: read-out: Cytotoxicity IC50, MCF-7
Description: as §1

[7] = system: MDA-MB-435s (human melanoma); test: In vitro cytotoxicity, MTT test; details: 72 h, read-out: Cytotoxicity IC50, MDA-MB-435s
Description: as §1

[8] = system: SH-SY5Y (human neuroblastoma); test: In vitro cytotoxicity, MTT test; details: 72 h, read-out: Cytotoxicity IC50, SHSY5Y
Description: as §1

[9] = Homo sapiens, A549, 72 h, MTT, 72 h

SMILES	LD50 at 24 h [1]	IC50 at 24 h [1]	IC50 ([2]; HT-1080, MTT, 72 h)	IC50 ([3]; HepG2, MTT, 72 h)	IC50 (CCL-8 (mouse sarcoma); MTT)	IC50 (MG-22A (mouse hepatoma); MTT)	IC50 ([4]; MTT)	IC50 [5, 9]	IC50 ([6]; MCF7, MTT, 72 h)	IC50 ([7]; MTT)	IC50 ([8]; Homo sapiens, SH-SY5Y, MTT)	further results
O=C(c1cc2ccc3c(Br)c(C4=CCCCC4)[se]c3c2oc1=O)N1CCCCC1 [Compound I-19, 7-Bromo-8-(cyclohex-1-en-1-yl)-3-(piperidine-1-carbonyl)-2H-selenopheno[3,2-h]chromen-2-one]	1000 µmol/kg and 500 mg/kg	161 ± 23 µM	50 ± 5 µM	103 ± 15 µM	> 193 µM	41 ± 2 µM	105 ± 4 µM	100 ± 3 µM	125 ± 8 µM	51 ± 8 µM	> 117 µM	
COC(=O)c1cc2ccc3c(Br)c(C4(OC)CCCCC4)[se]c3c2oc1=O [Compound I-4, Methyl 7-bromo-8-(1-methoxycyclohexyl)-2-oxo-2H-selenopheno[3,2-h]chromene-3-carboxylate]	1100 µmol/kg and 548 mg/kg	198 ± 2 µM	52 ± 5 µM	103 ± 5 µM	95 ± 2 µM	446 ± 6 µM	201 ± 5 µM	> 201 µM	46 ± 14 µM	103 ± 4 µM	> 117 µM	
COC1(c2[se]c3c(ccc4cc(C(=O)O[C@H]5CC[C@@]6(C)C(=CC[C@H]7[C@@H]8CC[C@H]([C@H](C)CCCC(C)C)[C@@]8(C)CC[C@@H]76)C5)c(=O)oc43)c2Br)CCCCC1 [Compound I-18, (3S,8S,9S,10R,13R,14S,17R)-10,13-Dimethyl-17-((R)-6-methylheptan-2-yl)-2,3,4,7,8,9,10,11,12,13,14,15,16,17-tetradecahydro-1H-cyclopenta[a]phenanthren-3-yl-7-bromo-8-(1-methoxycyclohexyl)-2-oxo-2H-selenopheno[3,2-h]chromene-3-carboxylate]	3700 µmol/kg and 3190 mg/kg	> 117 µM	> 117 µM	> 117 µM	> 117 µM	> 117 µM	> 117 µM	> 117 µM	> 117 µM	> 117 µM	> 117 µM	
Cl.O=C(O)c1cc2ccc3c(Br)c(CN4CCCCC4)[se]c3c2oc1=O [Compound I-13, 7-Bromo-2-oxo-8-(piperidin-1-ylmethyl)-2H-selenopheno[3,2-h]chromene-3-carboxylic acid hydrochloride]	4300 µmol/kg and 2180 mg/kg	197 ± 8 µM										IC50 ([2]; HT-1080, 72 h): 197 ± 3 µM; IC50 ([3]; HepG2, 72 h): > 197 µM; IC50 (CCL-8 (mouse sarcoma)): > 122 µM; IC50 (MG-22A (mouse hepatoma)): 49 ± 6 µM; IC50 [4]: 103 ± 9 µM; IC50 ([5]; Homo sapiens, A549, 72 h): 129 ± 6 µM; IC50 ([6]; MCF7, 72 h): 119 ± 2 µM; IC50 [7]: 182 ± 11 µM; IC50 ([8]; Homo sapiens, SH-SY5Y): > 197 µM
CCCCCCCCOC(=O)c1cc2ccc3c(Br)c(C4=CCCCC4)[se]c3c2oc1=O [Compound I-16, Octyl 7-bromo-8-(cyclohex-1-en-1-yl)-2-oxo-2H-selenopheno[3,2-h]chromene-3-carboxylate]	876 mg/kg	> 177 µM	> 117 µM	> 177 µM		> 122 µM	> 117 µM	> 117 µM	> 117 µM	> 122 µM	> 117 µM	
COC(=O)c1cc2ccc3c(Br)c(C4(O)CCCCC4)[se]c3c2oc1=O [Compound I-3, Methyl 7-bromo-8-(1-hydroxycyclohexyl)-2-oxo-2H-selenopheno[3,2-h]chromene-3-carboxylate]	> 5600 µmol/kg	207 ± 9 µM	27 ± 1 µM	> 117 µM	186 ± 9 µM	33 ± 6 µM	66 ± 3 µM	≤ 19 µM	29 ± 2 µM	64 ± 6 µM	≤ 19 µM	IC50 ([5]; MTT, 72 h): 19 ± 2 µM; IC50 ([8]; MTT): 19 ± 3 µM

— patent publication US10561681B2, “Antimetastatic 2H-selenopheno[3,2-h]chromenes, synthesis thereof, and methods of using same agents” (Latvian Institute of Organic Synthesis, priority 2016, dated 2020)
